# Several values for one entry are separate records, joined by “and”; a condition that tells them apart may be missing. Identical values can stand only once.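 48-hour exposure; five concentrations; linearly interpolated endpoints. GI50: concentration for 50% inhibition of growth. TGI is the concentration that stops growth completely.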
# Experiments:
# Test in all cases: NCI tumour cell line growth inhibition, 48 h
# RPMI-8226 leukemia = tested on: RPMI-8226 leukemia
# OVCAR-8 ovarian = tested on: OVCAR-8 ovarian
# CAKI-1 renal = tested on: CAKI-1 renal
# LOX IMVI melanoma = tested on: LOX IMVI melanoma
# HOP-62 NSCLC = tested on: HOP-62 NSCLC
# SNB-19 CNS = tested on: SNB-19 CNS
# HS 578T breast = tested on: HS 578T breast
# K-562 leukemia = tested on: K-562 leukemia
# SF-539 CNS = tested on: SF-539 CNS
# NCI-H460 lung = tested on: NCI-H460 lung
Compound,GI50 (RPMI-8226 leukemia),TGI (RPMI-8226 leukemia),GI50 (OVCAR-8 ovarian),TGI (OVCAR-8 ovarian),GI50 (CAKI-1 renal),TGI (CAKI-1 renal),GI50 (LOX IMVI melanoma),TGI (LOX IMVI melanoma),GI50 (HOP-62 NSCLC),TGI (HOP-62 NSCLC),GI50 (SNB-19 CNS),TGI (SNB-19 CNS),GI50 (HS 578T breast),TGI (HS 578T breast),GI50 (K-562 leukemia),TGI (K-562 leukemia),GI50 (SF-539 CNS),TGI (SF-539 CNS),GI50 (NCI-H460 lung),TGI (NCI-H460 lung)
CC(CCC/C=C/CCCN(C)C(=N)N)CC(C)C1OC(=O)C(C)C(O)/C=C/C(C)C(O)C(C)C(O)C(C)C(O)CCCC(O)CC2(O)OC(CC(OC(=O)CC(=O)O)CC(O)CC(O)C(C)C(O)/C=C/C=C/C1C)CC(O)C2O (centres undefined),2.71 µM and 9.09 µg/mL,10.5 µM and 28 µg/mL,2.54 µM and 7.93 µg/mL,5.88 µM and 19.8 µg/mL,2.01 µM and 7.96 µg/mL,5.24 µM and 17.7 µg/mL,3.17 µM and 12 µg/mL,11.3 µM and 29 µg/mL,4.29 µM and 10.5 µg/mL,17.1 µM and 21.6 µg/mL,4.9 µM and 10.1 µg/mL,17 µM and 21.8 µg/mL,2.56 µM and 2.5 µg/mL,7.84 µM and 12.9 µg/mL,3.13 µM and 10.4 µg/mL,7.16 µM and 75 µg/mL,1.73 µM and 2.67 µg/mL,3.64 µM and 12.5 µg/mL,2.09 µM and 3.95 µg/mL,3.95 µM and 14.5 µg/mL
Cn1c(N)cc(=O)nc1N,–,> 100 µM,–,> 100 µM,–,> 100 µM,–,> 100 µM,–,> 100 µM,–,> 100 µM,–,> 100 µM,–,> 100 µM,–,> 100 µM,–,> 100 µM
CCN(CC)CCCC(C)NC(=S)N/N=C(\C)c1ccccn1 (centres undefined),5.84 µM,> 100 µM,2.87 µM,> 100 µM,4.56 µM,> 100 µM,2.63 µM,> 100 µM,5.86 µM,83.1 µM,7.83 µM,> 100 µM,43.9 µM,> 100 µM,3.08 µM,> 100 µM,3.33 µM,82 µM,2.33 µM,15 µM
COc1ccc(C2CC(c3cccc(Nc4ccnc5cc(Cl)ccc45)c3)=NN2c2ccc(Cl)cc2)cc1 (centres undefined),4.7 µM,31.9 µM,5 µM,91 µM,2.38 µM,> 100 µM,1.3 µM,13.6 µM,2.44 µM,25.6 µM,15.9 µM,> 100 µM,14.7 µM,> 100 µM,2.75 µM,> 100 µM,1.8 µM,4.43 µM,3.04 µM,17.4 µM
Cn1c(N)c(N=Nc2ccc(S(N)(=O)=O)cc2)c(=O)n(C)c1=O,–,> 100 µM,–,> 100 µM,–,> 100 µM,–,> 100 µM,–,> 100 µM,–,> 100 µM,–,99.1 µM,–,> 100 µM,–,> 100 µM,–,> 100 µM
COc1cc(C2C3=C(COC3=O)N(CCO)c3cc4c(cc32)CCC4)cc(OC)c1OC (centres undefined),0.135 µM,> 12.2 µM,0.118 µM,> 32.5 µM,0.484 µM,> 32.5 µM,0.166 µM,> 32.5 µM,0.121 µM,> 32.5 µM,0.0946 µM,6.38 µM,0.104 µM,> 32.5 µM,0.0955 µM,> 10.4 µM,0.091 µM,0.663 µM,0.106 µM,1.1 µM
COc1ccc(-c2nccn2-c2cc(OC)c(OC)c(OC)c2)cc1,8.06 µM,> 93.2 µM,12 µM,> 100 µM,1.22 µM,> 77.1 µM,8.76 µM,> 100 µM,13.7 µM,> 100 µM,4.77 µM,> 35.6 µM,8.9 µM,> 77.6 µM,1.5 µM,> 100 µM,5.78 µM,24.4 µM,1.6 µM,> 100 µM
CCN(CC)CCC(CNc1c2ccc(Cl)cc2nc2ccc(OC)cc12)c1ccccc1 (centres undefined),1.33 µM,3.85 µM,1.26 µM,3.6 µM,1.3 µM,3.62 µM,1 µM,2.39 µM,1.16 µM,3.11 µM,1.36 µM,4.2 µM,1.95 µM,5.44 µM,0.337 µM,1.28 µM,1.49 µM,3.16 µM,0.768 µM,3.99 µM
CCCC1C2=C(C(=O)OC2=O)C2C(CC)CC3=C(C(=O)OC3=O)C12 (centres undefined),–,> 100 µM,–,> 100 µM,–,> 100 µM,–,> 100 µM,–,> 100 µM,–,> 100 µM,–,> 100 µM,–,> 100 µM,–,> 100 µM,–,> 100 µM
Cn1cnc2nc(Cl)nc(Cl)c21,0.591 µM,26.4 µM,3.5 µM,26.2 µM,1.08 µM,3.26 µM,0.406 µM,16.8 µM,2.55 µM,> 100 µM,5.79 µM,57.8 µM,2.28 µM,7.53 µM,0.713 µM,94.7 µM,0.924 µM,5.53 µM,2.04 µM,6.12 µM
Cn1c([N+](=O)[O-])cnc1/C=C1\Oc2ccc(Cl)cc2C1=O,0.985 µM,5.58 µM,0.33 µM,–,0.257 µM,0.754 µM,0.25 µM,0.825 µM,1.6 µM,4.78 µM,1.77 µM,6.95 µM,1.83 µM,> 24.1 µM,0.765 µM,> 26.9 µM,1.62 µM,3.69 µM,0.352 µM,2.95 µM
C/C=C\C(C)=C/C(C)C(=O)CC(O)CC1CC(=O)NC(=O)C1 (centres undefined),–,> 76.6 µM,–,98.8 µM,–,> 67.5 µM,–,> 100 µM,–,> 100 µM,–,> 90.6 µM,–,62.5 µM,–,> 100 µM,–,> 100 µM,–,> 100 µM
N#CC1=C(N)Oc2c(ccc3ccccc23)C1c1ccccc1Cl (centres undefined),0.348 µM,8.86 µM,0.542 µM,> 57.7 µM,0.167 µM,20.9 µM,0.479 µM,12.1 µM,0.374 µM,17.3 µM,0.59 µM,23.1 µM,0.226 µM,2.94 µM,0.0796 µM,> 43.5 µM,0.233 µM,0.792 µM,0.335 µM,1.34 µM
Nc1cc2[nH]c(=O)c3cc(Cl)ccc3c2cc1Cl,–,> 100 µM,–,13.5 µM,–,40.8 µM,–,53.6 µM,–,63.1 µM,–,37.2 µM,–,> 100 µM,–,> 100 µM,–,25.8 µM,–,18.8 µM
COc1ccc(/C(C)=C(\c2ccc(Cl)cc2)c2ccc(OCCN3CCCCC3)cc2)cc1F,3.49 µM,8.49 µM,4.11 µM,12.4 µM,3.14 µM,6.48 µM,2.42 µM,4.64 µM,3.34 µM,6.58 µM,5.37 µM,> 16.7 µM,2.83 µM,6.78 µM,0.698 µM,5.93 µM,2.42 µM,4.67 µM,2.59 µM,5.38 µM
COc1cc(OC)c(-c2oc3ccccc3c(=O)c2O)c(OC)c1,–,> 100 µM,–,> 100 µM,–,> 40.5 µM,–,> 100 µM,–,> 31.5 µM,–,> 100 µM,–,24.2 µM,–,> 100 µM,–,> 100 µM,–,> 100 µM
COC(=O)[C@@H](C)C[C@H](Cc1ccccc1)NC(=O)c1cccc([C@@H](C[C@H](C(C)C)N(C)C(=O)[C@@H](NC(=O)[C@H]2CCCCN2C)C(C)C)OC(C)=O)n1,< 0.00167 µM,> 16.7 µM,0.00243 µM,> 16.7 µM,0.00173 µM,> 16.7 µM,0.00495 µM,> 16.7 µM,0.00367 µM,> 16.7 µM,< 0.00167 µM,> 16.7 µM,0.00342 µM,> 11.8 µM,< 0.00167 µM,> 16.7 µM,0.00275 µM,0.00795 µM,< 0.00167 µM,> 16.7 µM
CN(C)c1ccc(/C=C/C(=O)c2ccc(Nc3nc(Nc4ccc(F)cc4)nc(Nc4ccc(Cl)cc4)n3)cc2)cc1,3.53 µM,26.5 µM,1.99 µM,15.1 µM,14.6 µM,> 100 µM,8.93 µM,47.2 µM,9.42 µM,28.3 µM,17.1 µM,> 100 µM,4.12 µM,49.6 µM,2.77 µM,> 100 µM,9.58 µM,27.2 µM,3.94 µM,15.6 µM
CCOC(=O)C(Cc1ccc(N(CCCl)CCCl)cc1)NC(=O)C(CC(C)C)NC(C)=O (centres undefined),1.96 µM,6.7 µM,1.02 µM,5.18 µM,0.32 µM,2.32 µM,0.296 µM,2.23 µM,1.32 µM,3.8 µM,3.55 µM,16.7 µM,2.55 µM,7.92 µM,1.19 µM,7.96 µM,1.09 µM,7.01 µM,0.0763 µM,1.54 µM
O=C(/C=C\c1ccc(Cl)c(Cl)c1)c1ccccc1,2.11 µM,4.86 µM,3.98 µM,15.1 µM,6.33 µM,19.3 µM,2.07 µM,4.48 µM,17.3 µM,35.1 µM,10.6 µM,23.6 µM,17 µM,52.5 µM,2.82 µM,8.1 µM,15.3 µM,29.6 µM,15.9 µM,32.9 µM
O=C(NC(c1ccccc1)C(O)C(=O)OCc1ccc2c(c1)C(=O)c1ccccc1C2=O)c1ccccc1 (centres undefined),–,> 68.1 µM,–,41 µM,–,20.1 µM,–,> 83.8 µM,–,9.82 µM,–,18.3 µM,–,> 100 µM,–,> 100 µM,–,20.6 µM,–,42.8 µM
CC[N+]1(C)CCC(O)(/C=C/c2ccccc2)C(C(=O)/C=C/c2ccccc2)C1 (centres undefined),–,5.76 µM,–,43 µM,–,3.42 µM,–,7.79 µM,–,35.5 µM,–,29.7 µM,–,> 100 µM,–,10.8 µM,–,19 µM,–,43.5 µM
CCCCc1ccc(C(N)=O)nc1,> 100 µM,> 100 µM,> 100 µM,> 100 µM,> 100 µM,> 100 µM,> 100 µM,> 100 µM,> 100 µM,> 100 µM,> 100 µM,> 100 µM,20 µM,> 100 µM,> 100 µM,> 100 µM,> 100 µM,> 100 µM,> 100 µM,> 100 µM

# Source: PubChem BioAssay (NCI)
